Patent US7868006B2, “Heterocyclic substituted piperazines with CXCR3 antagonist activity” (Schering Corporation, priority 2005, dated 2011)

The compounds below were run against T1, human CXCR3 (N-delta 4) (Homo sapiens, UniProt P49682) (assay: Human CXCR3 (N-delta 4) Scintillation Proximity Assay (SPA), [125I] IP-10 binding). Conditions: IC50 rating; Ba/F3-hCXCR3 (N-delta 4) membranes, 25 pM [125I] IP-10; read-out: IC50.
T1 construct: CD8 leader (N); Flag tag (N); expressed in transfected cells; host or cells: mouse pro-B Ba/F3 cells, stably transfected with pME18Sneo-hCXCR3 (N-delta 4); membrane preparation
T1 sequence (P49682 5-368 limits assumed): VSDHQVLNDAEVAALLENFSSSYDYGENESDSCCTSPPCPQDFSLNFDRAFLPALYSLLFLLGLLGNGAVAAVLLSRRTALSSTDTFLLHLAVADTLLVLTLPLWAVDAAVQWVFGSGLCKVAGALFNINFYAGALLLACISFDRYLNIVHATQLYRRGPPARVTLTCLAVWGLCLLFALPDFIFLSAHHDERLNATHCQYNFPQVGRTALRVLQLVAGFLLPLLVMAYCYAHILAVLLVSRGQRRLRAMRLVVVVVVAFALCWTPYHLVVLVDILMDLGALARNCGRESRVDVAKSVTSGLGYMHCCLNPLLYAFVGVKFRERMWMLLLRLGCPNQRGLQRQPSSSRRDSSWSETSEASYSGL
Method in brief: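 Membranes from mouse Ba/F3 pro-B cells stably expressing Flag-tagged human CXCR3 (N-delta 4), 2 μg per point, bound to WGA SPA beads. Compound titrations competed with 25 pM [125I] IP-10 for 3 hr at room temperature in HEPES buffer with Ca2+, Mg2+, NaCl, 1.0% BSA; bead-bound radioactivity counted, […] values reported.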

Structure (SMILES) | IC50 [µM]
CC[C@H]1CN(c2nc(N)c(-c3nnc(N)[nH]3)nc2Cl)CCN1C1CCN(C(=O)c2ccc(Cl)cc2)CC1 [Compound 68] | < 0.025
CCNc1nnc(-c2cnc(N3CCN(C4CCN(Cc5ccc(Cl)cc5)CC4)[C@@H](CC)C3)c(C)n2)o1 [Compound 132] | < 0.025
CC[C@H]1CN(c2ncc(-c3nnc(C)o3)nc2C)CCN1C1CCN(C(=O)c2ccc(F)c(F)c2)CC1 [Compound 63] | < 0.025
CC[C@H]1CN(c2ncc(-c3nc[nH]n3)nc2C)[C@H](C)CN1C1CCN(C(=O)c2ccc(F)c(F)c2)CC1 [Compound 122] | 0.025 to 0.1
CC[C@H]1CN(c2ncc(-c3ncc[nH]3)nc2C)CCN1C1CCN(Cc2ccc(Cl)cc2)CC1 [Compound 107] | < 0.025
CCNc1nnc(-c2cnc(N3C[C@H](CC)N(C4CCN(C(=O)c5ccc(Cl)cc5)CC4)C[C@H]3C)c(Cl)n2)o1 [Compound 101] | < 0.025
CC[C@H]1CN(c2nc(N)c(-c3nnc(C)o3)nc2Cl)CCN1C1CCN(Cc2ccc(Cl)c(OCCS(C)(=O)=O)c2)CC1 [Compound 7] | < 0.025
CCNc1nnc(-c2cnc(N3C[C@H](CC)N(C4CCN(C(=O)c5ccc(O)cc5)CC4)C[C@H]3C)c(C)n2)o1 [Compound 145] | 0.025 to 0.1

Continued, values first:

IC50 [µM] | Structure (SMILES)
< 0.025 | CC[C@H]1CN(c2ncc(-c3ncc[nH]3)nc2C)CCN1C1CCN(C(=O)c2ccc(Cl)nc2N)CC1 [Compound 119]
< 0.025 | CC[C@H]1CN(c2ncc(-c3nnc(C)o3)nc2Cl)CCN1C1CCN(C(=O)c2cc(F)c(Cl)nc2Cl)CC1 [Compound 33]
> 0.1 | CC[C@H]1CN(c2nc(N)c(-c3nnc(C)o3)nc2Cl)CCN1C1CCN(C(=O)c2ccc(Cl)cc2NS(C)(=O)=O)CC1 [Compound 92]
< 0.025 | CCNc1nnc(-c2cnc(N3CCN(C4CCN(Cc5ccc(C)cc5)CC4)[C@@H](CC)C3)c(C)n2)o1 [Compound 115]
